System: carrageenan induced paw edema
Experiment: Anti-inflammatory activity: acute carrageenan induced paw edema in rats
Format: in vivo, Wister rats
Conditions: 10 mg kg^−1 indomethacin mol equivalent; for % inhibition of edema / Mean edema thickness: intraperitoneally; for Mean edema thickness: mean ± SE; for Potency (% inhibition of edema relative to that of indomethacin reference standard): at 4 h effect
Procedure: The anti-inflammatory activity of the tested compounds was determined in vivo by the acute carrageenan induced paw edema standard method in rats. See, Naumov, et al., Bioorg. Med. Chem. Lett, 25: 2314-2320 (2015), Tiwari, et al., Org. Biomol. Chem, 12: 7238-7249 (2014), Girgis, et al., Eur. J. Med. Chem, 50: 1-8 (2012), Barsoum, et al., Eur. J. Med. Chem, 44: 2172-2177 (2009), Girgis, et al., Eur. J. Med. Chem, 44: 1972-1977 (2009), Girgis, et al., Eur. J. Med. Chem, 44: 1257-1264 (2009), Girgis, et al., Eur. J. Med. Chem, 44: 91-100 (2009), Girgis, et al., Eur. J. Med. Chem, 43: 2116-2121 (2008), Girgis, et al., Bioorg. Med. Chem, 14: 8527-8532 (2006), and Barsoum, et al., Bioorg. Med. Chem, 14: 3929-3937 (2006).
Adult Wister rats of either sex (pregnant female animals were excluded) weighing 120-150 g were divided into 18 groups of 6 animals each. […] The control group was given DMSO only. Carrageenan paw edema was induced by subcutaneous injection of freshly prepared 1% solution of carrageenan in saline (0.9%, 0.1 ml per rat) into subplantar tissue of the right hind paw of rats. The thickness of the paw was measured (in mm) after successive time intervals (1, 2,3,4 and 24 h) and compared with the initial hind paw thickness of each rat for determining the edema thickness. Data were collected, checked, revised and analyzed. Quantitative variables from normal distribution were expressed as means±SE “standard error”. The anti-inflammatory activity was expressed as percentage inhibition of edema thickness in treated animals in comparison with the control group according to eqn. (1)
Where, Vc and Vt are the mean of edema paw thickness for the control and tested compound treated animal groups, respectively.

Compound | % inhibition of edema (1 h) [%] | Mean edema thickness (1 h) [mm] | % inhibition of edema (2 h) [%] | Mean edema thickness (2 h) [mm] | % inhibition of edema (3 h) [%] | Mean edema thickness (3 h) [mm] | % inhibition of edema (4 h) [%] | Mean edema thickness (4 h) [mm] | % inhibition of edema (24 h) [%] | Mean edema thickness (24 h) [mm] | Potency (% inhibition of edema relative to that of indomethacin reference standard)
COc1cc(/C=C/C(=O)CC(=O)/C=C/c2ccc(OC(=O)[C@H](CCSC)NC(=O)OC(C)(C)C)c(OC)c2)ccc1OC(=O)[C@H](CCSC)NC(=O)OC(C)(C)C [Compound 28] | 34 | 1.59 ± 0.21 | 36 | 1.31 ± 0.18 | 44 | 1.01 ± 0.17 | 88 | 0.17 ± 0.02 | 23 | 0.64 ± 0.05 | 101
COc1cc(/C=C/C(=O)CC(=O)/C=C/c2ccc(OC(=O)[C@@H](CCSC)NC(=O)OC(C)(C)C)c(OC)c2)ccc1OC(=O)[C@@H](CCSC)NC(=O)OC(C)(C)C [Compound 29] | 58 | 1.01 ± 0.14 | 69 | 0.63 ± 0.11 | 74 | 0.47 ± 0.08 | 89 | 0.15 ± 0.06 | 41 | 0.49 ± 0.09 | 102
COc1cc(/C=C/C(=O)CC(=O)/C=C/c2ccc(OC(=O)[C@@H](NC(=O)OC(C)(C)C)C(C)C)c(OC)c2)ccc1OC(=O)[C@@H](NC(=O)OC(C)(C)C)C(C)C [Compound 30] | 13 | 2.09 ± 0.21 | 24 | 1.57 ± 0.19 | 25 | 1.34 ± 0.11 | 43 | 0.80 ± 0.08 | 30 | 0.58 ± 0.10 | 49
CC[C@H](C)[C@H](NC(=O)OC(C)(C)C)C(=O)Oc1ccc(/C=C/C(=O)CC(=O)/C=C/c2ccc(OC(=O)[C@@H](NC(=O)OC(C)(C)C)[C@@H](C)CC)c(OC)c2)cc1OC [Compound 31] | 33 | 1.61 ± 0.11 | 38 | 1.27 ± 0.07 | 49 | 0.91 ± 0.05 | 51 | 0.69 ± 0.02 | 41 | 0.49 ± 0.03 | 59
COc1cc(/C=C/C(=O)CC(=O)/C=C/c2ccc(OC(=O)[C@H](CCC(N)=O)NC(=O)OC(C)(C)C)c(OC)c2)ccc1OC(=O)[C@H](CCC(N)=O)NC(=O)OC(C)(C)C [Compound 32] | 10 | 2.16 ± 0.17 | 16 | 1.73 ± 0.09 | 32 | 1.22 ± 0.12 | 41 | 0.83 ± 0.06 | 57 | 0.36 ± 0.02 | 47
COc1cc(/C=C/C(=O)CC(=O)/C=C/c2ccc(OC(=O)CN)c(OC)c2)ccc1OC(=O)CN.Cl.Cl [Compound 33] | 66 | 0.82 ± 0.09 | 67 | 0.69 ± 0.03 | 74 | 0.46 ± 0.03 | 88 | 0.17 ± 0.01 | 42 | 0.48 ± 0.03 | 101
COc1cc(/C=C/C(=O)CC(=O)/C=C/c2ccc(OC(=O)[C@@H](N)Cc3ccccc3)c(OC)c2)ccc1OC(=O)[C@@H](N)Cc1ccccc1.Cl.Cl [Compound 34] | 46 | 1.29 ± 0.14 | 51 | 1.01 ± 0.11 | 63 | 0.66 ± 0.08 | 84 | 0.22 ± 0.03 | 20 | 0.66 ± 0.04 | 97
COc1cc(/C=C/C(=O)CC(=O)/C=C/c2ccc(OC(=O)[C@H](C)N)c(OC)c2)ccc1OC(=O)[C@H](C)N.Cl.Cl [Compound 35] | 37 | 1.51 ± 0.12 | 42 | 1.19 ± 0.10 | 53 | 0.85 ± 0.09 | 66 | 0.47 ± 0.04 | 16 | 0.70 ± 0.06 | 76
COc1cc(/C=C/C(=O)CC(=O)/C=C/c2ccc(OC(=O)C(C)N)c(OC)c2)ccc1OC(=O)C(C)N.Cl.Cl (centres unmarked) [Compound 36] | 54 | 1.11 ± 0.08 | 54 | 0.94 ± 0.09 | 55 | 0.81 ± 0.05 | 84 | 0.22 ± 0.02 | 28 | 0.60 ± 0.06 | 97
COc1cc(/C=C/C(=O)CC(=O)/C=C/c2ccc(OC(=O)[C@@H](C)N)c(OC)c2)ccc1OC(=O)[C@@H](C)N.Cl.Cl [Compound 37] | 61 | 0.95 ± 0.11 | 62 | 0.79 ± 0.13 | 74 | 0.46 ± 0.09 | 96 | 0.06 ± 0.01 | 29 | 0.59 ± 0.07 | 110
COc1cc(/C=C/C(=O)CC(=O)/C=C/c2ccc(OC(=O)CCN)c(OC)c2)ccc1OC(=O)CCN.Cl.Cl [Compound 38] | 69 | 0.74 ± 0.09 | 71 | 0.60 ± 0.06 | 77 | 0.42 ± 0.03 | 89 | 0.16 ± 0.04 | 72 | 0.23 ± 0.01 | 102
COc1cc(/C=C/C(=O)CC(=O)/C=C/c2ccc(OC(=O)[C@@H](N)CCSC)c(OC)c2)ccc1OC(=O)[C@@H](N)CCSC.Cl.Cl [Compound 39] | 64 | 0.86 ± 0.13 | 70 | 0.62 ± 0.11 | 73 | 0.49 ± 0.07 | 97 | 0.04 ± 0.01 | 36 | 0.53 ± 0.03 | 111
COc1cc(/C=C/C(=O)CC(=O)/C=C/c2ccc(OC(=O)[C@@H](N)C(C)C)c(OC)c2)ccc1OC(=O)[C@@H](N)C(C)C.Cl.Cl [Compound 41] | 60 | 0.97 ± 0.10 | 50 | 1.04 ± 0.12 | 48 | 0.93 ± 0.11 | 46 | 0.75 ± 0.09 | 14 | 0.71 ± 0.11 | 53

— patent publication US10660967B2, “Curcumin conjugates and methods of use thereof” (priority 2016, dated 2020)
